Columns and labels:
OVA-specific IgG2c = test: Test 3: OVA-specific IgG2c in serum of immunized mice by ELISA; format: in vivo, C57BL/6 male mouse; conditions: mouse, intramuscular with OVA, liposome formulation, 10 or 100 μg/mouse, two immunizations, serum one week after the additional immunization; compared with the negative control group
Description: FIG. 1 is a graph showing the results of measuring OVA-specific IgG2c in immunized mouse serum in mice to which the formulation prepared in Example 6 or 7 was intramuscularly administered, by ELISA in Test 3. The vertical axis indicates the antibody titer of OVA-specific IgG2c in serum. The horizontal axis indicates the administered sample (administered dose in parentheses). 1: negative control group (phosphate buffered saline), 2: Example 6 administration group (the compound of Example 1, 10 μg/mouse), 3: Example 6 administration group (the compound of Example 1, 100 μg/mouse), 4: Example 7 administration group (the compound of Example 2, 10 μg/mouse), 5: Example 7 administration group (the compound of Example 2, 100 μg/mouse).
FIG. 2 is a graph showing the results of measuring OVA-specific IgG2c in immunized mouse serum in mice to which the formulation prepared in Reference Example 16 or Example 6 was intramuscularly administered, by ELISA in Test 3. The vertical axis indicates the antibody titer of OVA-specific IgG2c in serum. The horizontal axis indicates the administered sample (administered dose in parentheses). […]
An equal mixture of ovalbumin (OVA) (2 mg/mL) as an antigen and the formulation prepared in Example 6, Example 7, or Reference example 16 (containing 0.2 or 2 mg/mL the compound of Example 1, Example 2, or Reference example 9) was intramuscularly administered to the gastrocnemius of a 7-week-old C57BL/6 male mouse (100 μL/mouse), which was defined as the first immunization. […] The OVA-specific IgG2c value in each serum was measured by the following ELISA method. To 96-well plate, OVA solution (SIGMA) was added, 1% Skim Milk (Wako) was added for blocking, the serum sample which was diluted with phosphate buffer solution was added, caprine antimouse IgG2c (Southern Bio) as the secondary antibody was added, SureBlue™ TMB Micrewell Peroxidase Substrate (KPL) was added, and then the product of the enzymatic reaction was quantified with a microplate reader.

spleen cell of the mouse = test: Test 4: T cell populations in spleen cells of immunized mice by flow cytometry; format: in vivo; conditions: intramuscular with OVA, liposome formulation, compared with the negative control group
Description: The equal mixture prepared in Test 3 of ovalbumin (OVA) (2 mg/mL) and the formulation prepared in Example 6, Example 7, or Reference example 16 (containing 0.2 or 2 mg/mL the compound of Example 1, Example 2, or Reference example 9) was administered to a mouse (100 μL/mouse). The spleen cell of the mouse was prepared, OVA and Brefeldin A (eBioscience) were added the cell, and the cell was cultured overnight. The collected cell was stained with APC-labeled antimouse CD3e antibody (Invitrogen), PerCP-labeled antimouse CD4 antibody (BioLegend), and Fixable Viability Dye eFluor™ 520 (invitorgen), and fixed with Fixation/Permeabilization buffer (Invitrogen). The cell was treated with Permeabilization buffer (Invitrogen), and then stained with antibody cocktail BV421-labeled anti-IFN-γ antibody (BioLegend), PE-Cy7-labeled anti-IL-2 antibody (eBioscience), and PE-labeled TNF-α (BioLegend). The data were taken and analyzed with FACS Cant II (BD Biosciences) and FLOWJO software (TreeStar).
Separately, the spleen cell was stained with V450-labled antimouse CD3e antibody (invitrogen), Alexa Fluor™ 647-labeled antimouse CD8 antibody (MBL), PE-labeled H-2Kb OVA Tetramer-SIINFEKL (MBL), and Fixable Viability dye eFluor 520 (invitrogen). The data were taken and analyzed with FACS Cant II (BD Biosciences) and FLOWJO software (TreeStar).
Further separately, the spleen cell was stained with V450-labeled antimouse CD3e antibody (invitrogen), Alexa Fluor™ 647-labeled antimouse CD8 antibody (MBL), PE-Cy7-labeled antimouse CD44 antibody (Invitrogen), PerCP-Cy5.5-labeled antimouse CD62L antibody (Invitrogen), and Fixable Viability dye eFluor 520 (Invitrogen). The data were taken and analyzed with FACS Cant II (BD Biosciences) and FLOWJO software (TreeStar).

human TLR4 = target: T1, human TLR4 (Homo sapiens, UniProt O00206+Q9Y6Y9); test: Human TLR4 reporter gene assay (Test 1); format: cell-based; conditions: HEK-Blue hTLR4 cell line, SEAP reporter, 37° C. 16-20 hours, 0.1% DMSO; concentration giving half of maximal SEAP level induced with LPS
T1 construct: host or cells: HEK-Blue hTLR4 cell line
Source text: Human TLR4 Reporter Gene Assay
HEK-Blue™ hTLR4 cell line (Invivogen Corporation) is a stably co-transfected cell line which expresses human TLR4, MD2, CD14, and secretory alkaline phosphatase (SEAP) reporter gene under the transcriptional regulation of an NF-κB response element. The TLR4 expression of the cell line has been already tested by RT-PCR, flow cytometry. Transfectants with stable expression were selected using the antibiotic HEK-Blue™ Selection. TLR signaling leads to the translocation of NF-κB and the activation of the promoter results in expression of the SEAP gene. TLR4-specific activation was assessed by determining the level of SEAP produced following incubation of the cells at 37° C. for 16-20 hours with each compound prepared in Examples and Reference examples in the presence of 0.1% (v/v) DMSO. The human TLR4 activity for the present compound was assessed by human TLR4 reporter gene assay, and the concentration of the compound concentration which produced half of the maximal level of SEAP induced with lipopolysaccharide (LPS) was determined as EC50.

T1 sequence (O00206 24-839): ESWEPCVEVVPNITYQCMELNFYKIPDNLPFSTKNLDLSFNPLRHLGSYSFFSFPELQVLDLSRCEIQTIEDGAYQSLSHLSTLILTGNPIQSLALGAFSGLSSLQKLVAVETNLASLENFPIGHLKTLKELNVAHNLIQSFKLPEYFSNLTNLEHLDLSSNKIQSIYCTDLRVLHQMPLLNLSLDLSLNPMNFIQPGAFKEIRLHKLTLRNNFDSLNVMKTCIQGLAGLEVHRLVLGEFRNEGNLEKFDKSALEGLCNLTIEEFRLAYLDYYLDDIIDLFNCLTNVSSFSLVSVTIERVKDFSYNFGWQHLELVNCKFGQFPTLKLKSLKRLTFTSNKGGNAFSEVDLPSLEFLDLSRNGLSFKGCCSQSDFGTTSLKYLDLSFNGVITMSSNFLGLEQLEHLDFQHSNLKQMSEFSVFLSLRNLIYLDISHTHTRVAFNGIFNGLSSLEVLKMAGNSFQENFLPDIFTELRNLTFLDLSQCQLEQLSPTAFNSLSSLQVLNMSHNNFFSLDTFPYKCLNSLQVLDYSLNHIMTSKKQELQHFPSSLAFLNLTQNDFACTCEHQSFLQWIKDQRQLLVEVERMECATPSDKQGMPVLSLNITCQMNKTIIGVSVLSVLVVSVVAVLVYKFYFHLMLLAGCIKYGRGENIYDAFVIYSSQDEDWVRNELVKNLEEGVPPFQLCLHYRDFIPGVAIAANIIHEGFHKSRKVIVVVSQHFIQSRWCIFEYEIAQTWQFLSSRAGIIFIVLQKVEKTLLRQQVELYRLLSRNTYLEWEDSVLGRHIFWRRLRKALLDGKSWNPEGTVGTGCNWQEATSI
T1 sequence (Q9Y6Y9 17-160 limits assumed): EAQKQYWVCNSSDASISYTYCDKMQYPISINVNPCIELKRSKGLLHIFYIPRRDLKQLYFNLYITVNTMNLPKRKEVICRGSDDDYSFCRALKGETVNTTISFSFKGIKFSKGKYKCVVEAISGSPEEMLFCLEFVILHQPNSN

Row | SMILES | OVA-specific IgG2c induction (OVA-specific IgG2c) | percentage of CD8-positive effector memory T-lymphocyte (spleen cell of the mouse) | percentage of MHC-restricted OVA-specific CD8-positive T-lymphocyte (OVA tetramer-positive CD8T cell) (spleen cell of the mouse) | percentage of OVA-specific type 1 helper T-cell (spleen cell of the mouse) | EC50 (human TLR4) [nM]
1 | CCCCCCCCCCC[C@H](CC(=O)NC1C(OC[C@@H](NC(=O)C[C@@H](CCCCCCCCCCC)OC(=O)CCCCCCCCC)C(=O)O)OC(CO)C(OP(=O)(O)O)C1OC(=O)C[C@@H](CCCCCCCCCCC)OC(=O)CCCCCCCCc1ccccc1)OC(=O)CCCCCCCCC (stereo partly drawn) [Reference example 9, (2R)-2-{[(3R)-3-(Decanoyloxy)tetradecanoyl]amino}-3-{[3-{[(3R)-3-(decanoyloxy)tetradecanoyl]amino}-6-(hydroxymethyl)-4-({(3R)-3-[(9-phenylnonanoyl)oxy]tetradecanoyl}oxy)-5-(phosphonooxy)oxan-2-yl]oxy}propanoic acid, reference compound] | significantly strong | significantly increased | significantly increased | significantly increased | 43.9
2 | CCCCCCCCCCC[C@H](CC(=O)NC1C(OC[C@H](NC(=O)C[C@@H](CCCCCCCCCCC)OC(=O)CCCCCCCCC)C(=O)O)OC(CO)C(O)C1OC(=O)C[C@@H](CCCCCCCCCCC)OC(=O)CCCCCCCCc1ccccc1)OC(=O)CCCCCCCCC (stereo partly drawn) [Example 2, (2S)-2-{[(3R)-3-(decanoyloxy)tetradecanoyl]amino}-3-{[3-{[(3R)-3-(decanoyloxy)tetradecanoyl]amino}-5-hydroxy-6-(hydroxymethyl)-4-({(3R)-3-[(9-phenylnonanoyl)oxy]tetradecanoyl}oxy)oxan-2-yl]oxy}propanoic acid] | significantly strong | significantly increased | significantly increased | significantly increased | 15
3 | CCCCCCCCCCC[C@H](CC(=O)NC1C(OC[C@@H](NC(=O)C[C@@H](CCCCCCCCCCC)OC(=O)CCCCCCCCC)C(=O)O)OC(CO)C(O)C1OC(=O)C[C@@H](CCCCCCCCCCC)OC(=O)CCCCCCCCc1ccccc1)OC(=O)CCCCCCCCC (stereo partly drawn) [Example 1, (2R)-2-{[(3R)-3-(Decanoyloxy)tetradecanoyl]amino}-3-{[3-{[(3R)-3-(decanoyloxy)tetradecanoyl]amino}-5-hydroxy-6-(hydroxymethyl)-4-({(3R)-3-[(9-phenylnonanoyl)oxy]tetradecanoyl}oxy)oxan-2-yl]oxy}propanoic acid] | significantly strong | significantly increased | significantly increased | significantly increased | 43.5

— patent publication US20230287027A1, “ADJUVANT WITH TLR4 AGONIST ACTIVITY” (Sumitomo Pharma Co., Ltd, priority 2020, published 2023)
